Assay results reported in ChEMBL document CHEMBL1201862, “PubChem BioAssay data set” (2004).
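Protocol summary: plate cells (96-well), add compound at 5 concentrations, incubate 48 h, interpolate endpoints linearly. The concentration for 50% growth inhibition is given as GI50.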 Activity calls are given as the source filed them. Rule as the data show it: active = GI50 up to about 1.1 µM and inactive = higher.

Columns and labels:
Assay in all cases: NCI anticancer screen, dose series, 48 h
[1] = tested on: A549
[2] = tested on: CCRF-CEM
[3] = tested on: DMS-114
[4] = tested on: HOP-62
[5] = tested on: NCI-H460
[6] = tested on: NCI/ADR-RES
[7] = tested on: OVCAR-8
[8] = tested on: SF-539
[9] = tested on: SK-MEL-2
[10] = tested on: SNB-19
[11] = tested on: ACHN
[12] = tested on: BT-549
[13] = tested on: DU-145
[14] = tested on: Hs-578T
[15] = tested on: MDA-MB-231
[16] = tested on: MDA-MB-435
[17] = tested on: NCI-H522
[18] = tested on: SR
[19] = tested on: T47D
[20] = tested on: TK-10

| SMILES | GI50 [1] | GI50 [2] | GI50 [3] | GI50 [4] | GI50 [5] | GI50 [6] | GI50 [7] | GI50 [8] | GI50 [9] | GI50 [10] | GI50 [11] | GI50 [12] | GI50 [13] | GI50 [14] | GI50 [15] | GI50 [16] | GI50 [17] | GI50 [18] | GI50 [19] | GI50 [20] |
| --- | --- | --- | --- | --- | --- | --- | --- | --- | --- | --- | --- | --- | --- | --- | --- | --- | --- | --- | --- | --- |
| CC(C)=CCC(OC(=O)C=C(C)C)c1cc(O)c2c(c1O)C(=O)C=CC2=O (stereo not given) | 5.04 µM (inactive) | 0.0208 µM (active) | 1.05 µM (active) | 12.8 µM (inactive) | 2.75 µM (inactive) | 0.406 µM (active) | 0.33 µM (active) | 2.3 µM (inactive) | 2.01 µM (inactive) | 7.46 µM (inactive) | – | – | – | – | – | – | – | – | – | – |
| COc1cccc2c1C(=O)c1c(O)c3c(c(O)c1C2=O)C[C@@](O)(C(C)=O)C[C@@H]3OC1CC(O)C(O)C(C)O1 (stereo not given in full) | 0.465 µM (active) | 0.0902 µM (active) | – | 0.307 µM (active) | 0.124 µM (active) | 0.36 µM (active) | 1.3 µM (inactive) | 0.9 µM (active) | 4.81 µM (inactive) | 1.09 µM (active) | 0.543 µM (active) | 3.33 µM (inactive) | 1.62 µM (inactive) | 0.998 µM (active) | 8.65 µM (inactive) | 8.95 µM (inactive) | 1.82 µM (inactive) | 0.00935 µM (active) | 2.82 µM (inactive) | 5.74 µM (inactive) |
| O=C(NC(Cc1ccc(I)cc1)C(=O)O)c1ccc(Br)cc1 (stereo not given) | > 100 µM (inactive) | > 66.2 µM (inactive) | 66.2 µM (inactive) | > 100 µM (inactive) | 98.6 µM (inactive) | > 100 µM (inactive) | > 100 µM (inactive) | > 100 µM (inactive) | > 100 µM (inactive) | > 86.7 µM (inactive) | – | – | – | – | – | – | 64.9 µM (inactive) | – | – | – |
| O=C(O)C1CCC(=O)N1C(=O)COc1cc(Cl)c(Cl)cc1Cl (stereo not given) | > 100 µM (inactive) | – | > 100 µM (inactive) | – | > 100 µM (inactive) | – | > 100 µM (inactive) | – | – | > 100 µM (inactive) | > 100 µM (inactive) | – | – | – | – | – | > 100 µM (inactive) | – | – | > 100 µM (inactive) |
| CCOC(=O)C(C(=O)OCC)c1cc(-c2cc3ccccc3o2)oc(=O)c1C#N | 33.4 µM (inactive) | 29.6 µM (inactive) | 26.7 µM (inactive) | – | 30.2 µM (inactive) | – | 21.4 µM (inactive) | 19.3 µM (inactive) | 19.8 µM (inactive) | 37.3 µM (inactive) | 34.6 µM (inactive) | – | – | – | – | – | – | 24.5 µM (inactive) | – | 27.3 µM (inactive) |
| Clc1nc2c(N3CCCC3)nc(N3CCNCC3)nc2[nH]1 | 17.9 µM (inactive) | 19.4 µM (inactive) | – | 20 µM (inactive) | 17.6 µM (inactive) | 37.2 µM (inactive) | 16 µM (inactive) | 18.4 µM (inactive) | 18.4 µM (inactive) | 17.6 µM (inactive) | 19.9 µM (inactive) | 29.4 µM (inactive) | 16.4 µM (inactive) | > 100 µM (inactive) | 16.4 µM (inactive) | 18.7 µM (inactive) | 17 µM (inactive) | 16.9 µM (inactive) | 16.9 µM (inactive) | 57.5 µM (inactive) |
| O=C1[C@@H]2C(c3c(Cl)cccc3Cl)=NO[C@@H]2C(=O)N1c1ccc(Cc2ccc(N3C(=O)[C@H]4C(c5c(Cl)cccc5Cl)=NO[C@H]4C3=O)cc2)cc1 | > 100 µM (inactive) | > 100 µM (inactive) | > 100 µM (inactive) | > 100 µM (inactive) | > 100 µM (inactive) | – | > 100 µM (inactive) | > 100 µM (inactive) | > 100 µM (inactive) | – | > 100 µM (inactive) | – | – | – | – | – | – | – | – | > 100 µM (inactive) |
| Clc1ccccc1/C=C/c1cscn1 | – | > 100 µM (inactive) | > 100 µM (inactive) | > 100 µM (inactive) | > 100 µM (inactive) | – | – | > 100 µM (inactive) | > 100 µM (inactive) | > 100 µM (inactive) | > 100 µM (inactive) | – | – | – | – | – | > 100 µM (inactive) | > 100 µM (inactive) | – | > 100 µM (inactive) |
| COc1cc(/N=N\c2ccc(OC)c(S(=O)(=O)O)c2)c(C)cc1/N=N\c1ccc(/C=C/c2ccc(/N=[N+](/[O-])c3ccc(/C=C/c4ccc(/N=N/c5cc(C)c(/N=N\c6ccc(OC)c(S(=O)(=O)O)c6)cc5OC)cc4S(=O)(=O)O)c(S(=O)(=O)O)c3)cc2S(=O)(=O)O)c(S(=O)(=O)O)c1 | > 100 µM (inactive) | > 100 µM (inactive) | > 100 µM (inactive) | > 100 µM (inactive) | > 100 µM (inactive) | > 100 µM (inactive) | > 100 µM (inactive) | > 100 µM (inactive) | > 100 µM (inactive) | > 100 µM (inactive) | – | – | – | – | – | – | > 100 µM (inactive) | – | – | – |
